Tested on: adults with plaque psoriasis
Assay: Long-term open-label extension study (PSOARING 3): Physician Global Assessment (PGA), treatment episodes, treatment success, remittive effect
Type: in vivo, human
Protocol: This extension study consisted of up to 40 weeks of treatment and a 4 week, safety follow up period.
At the completion of the Week 12 visit of the DB, pivotal Phase 3 study, eligibility of the subjects opting to enroll in this extension study was confirmed. Study visits during the treatment period for all subjects occurred every 4 weeks (±3 days). A phone call was performed at Week 2 (Day 15). Unscheduled visits may have occurred, as needed. Subjects who withdrew from this study before Week 40 returned to the study center for an Early Termination visit. The total duration of this extension study participation was 44 weeks. Subjects in this study were treated as follows based on their PGA score from the Week 12 visit in the DB, pivotal Phase 3 study (Study DMVT 505 3001 or Study DMVT 505 3002).
The PGA was used to assess the primary efficacy endpoint in this study. The PGA is a clinical tool for assessing the current state/severity of a subject's psoriasis at a given time point. It is a static, 5 point, morphological assessment of overall disease severity, as determined by the Investigator, using the clinical characteristics of erythema, scaling, and plaque thickness/elevation as guidelines; higher PGA scores represent more severe disease (0=clear, 1=almost clear, 2=mild, 3=moderate, and 4=severe). The BSA affected was not considered in scoring of the PGA. Variations of the PGA are frequently used in clinical studies because it is a simple assessment, similar to those used in clinical practice. The PGA was performed first, prior to the % BSA, PASI, and LTS assessments.
Time to event parameters, such as the time from treatment success to subsequent worsening (PGA≥2) or duration of treatment episode, were summarized by the Kaplan Meier product limit method using OC.

[1] = Week 40, LOCF, Tapinarof (Pivotal) group
[2] = Week 40, OC, Vehicle (Pivotal) group
[3] = Week 40 LOCF, Tapinarof (Pivotal)
[4] = Week 40 LOCF, Vehicle (Pivotal)
[5] = Week 40 OC, Tapinarof (Pivotal)

In the case of `CC(C)c1c(O)cc(/C=C/c2ccccc2)cc1O` [Tapinarof, 3,5-Dihydroxy-4-isopropyl-trans-stilbene], the “PGA Change from Baseline: Improved by 4” value (Week 16 OC, Vehicle (Pivotal)) is reported as 1 (0.5) n (%), the “PGA Change from Baseline: No Change” value (Week 16 OC, Vehicle (Pivotal)) is reported as 59 (28.2) n (%) and the “PGA Change from Baseline: Worsened by 1” value (Week 16 OC, Vehicle (Pivotal)) is reported as 6 (2.9) n (%). For the same compound, the “PGA Change from Baseline: Worsened by 2” value (Week 16 OC, Vehicle (Pivotal)) was 2 (1.0) n (%), the “PGA Change from Baseline: Worsened by 3” value (Week 16 OC, Vehicle (Pivotal)) was 0 (0.0) n (%) and the “PGA Change from Baseline: Worsened by 4” value (Week 16 OC, Vehicle (Pivotal)) was 0 (0.0) n (%). The “Subjects with PGA=0” value [1] was 15.4%, the “Subjects with PGA=1” value [1] was 30.0% and the “Subjects with PGA=1” value (Week 40, LOCF, Vehicle (Pivotal) group) was 27.4%. The “Subjects with PGA=1” value (Week 40, OC, Tapinarof (Pivotal) group) was 30.1%, the “Subjects with PGA=0” value [2] was 23.9% and the “Subjects with PGA=1” value [2] was 31.9%. For the same compound, the “PGA 0 - Clear” value (Week 40 LOCF, Overall) was 118 (15.8) n (%), the “PGA 1 - Almost Clear” value (Week 40 LOCF, Overall) was 217 (29.1) n (%) and the “PGA 2 - Mild” value (Week 40 LOCF, Overall) was 253 (34.0) n (%). The “PGA 3 - Moderate” value (Week 40 LOCF, Overall) was 146 (19.6) n (%), the “PGA 4 - Severe” value (Week 40 LOCF, Overall) was 11 (1.5) n (%) and the “PGA Change from Baseline: Improved by 1” value (Week 40 LOCF, Overall) was 194 (26.1) n (%). For the same compound, the “PGA Change from Baseline: Improved by 2” value (Week 40 LOCF, Overall) was 88 (11.9) n (%), the “PGA Change from Baseline: Improved by 3” value (Week 40 LOCF, Overall) was 27 (3.6) n (%) and the “PGA Change from Baseline: Improved by 4” value (Week 40 LOCF, Overall) was 2 (0.3) n (%). The “PGA Change from Baseline: No Change” value (Week 40 LOCF, Overall) was 282 (38.0) n (%), the “PGA Change from Baseline: Worsened by 2” value (Week 40 LOCF, Overall) was 37 (5.0) n (%) and the “PGA Change from Baseline: Worsened by 3” value (Week 40 LOCF, Overall) was 4 (0.5) n (%). The “PGA Change from Baseline: Worsened by 4” value (Week 40 LOCF, Overall) was 0 (0.0) n (%), the “PGA 0 - Clear” value [3] was 76 (15.4) n (%) and the “PGA 1 - Almost Clear” value [3] was 148 (30.0) n (%). The “PGA 2 - Mild” value [3] was 171 (34.7) n (%), the “PGA 3 - Moderate” value [3] was 91 (18.5) n (%) and the “PGA 4 - Severe” value [3] was 7 (1.4) n (%). The “PGA Change from Baseline: Improved by 1” value [3] was 110 (22.4) n (%), the “PGA Change from Baseline: Improved by 2” value [3] was 31 (6.3) n (%) and the “PGA Change from Baseline: Improved by 3” value [3] was 5 (1.0) n (%). For the same compound, the “PGA Change from Baseline: Improved by 4” value [3] was 1 (0.2) n (%), the “PGA Change from Baseline: No Change” value [3] was 211 (43.0) n (%) and the “PGA Change from Baseline: Worsened by 1” value [3] was 95 (19.3) n (%). The “PGA Change from Baseline: Worsened by 2” value [3] was 34 (6.9) n (%), the “PGA Change from Baseline: Worsened by 3” value [3] was 4 (0.8) n (%) and the “PGA Change from Baseline: Worsened by 4” value [3] was 0 (0.0) n (%). For the same compound, the “PGA 0 - Clear” value [4] was 42 (16.7) n (%), the “PGA 1 - Almost Clear” value [4] was 69 (27.4) n (%) and the “PGA 2 - Mild” value [4] was 82 (32.5) n (%). The “PGA 3 - Moderate” value [4] was 55 (21.8) n (%), the “PGA 4 - Severe” value [4] was 4 (1.6) n (%) and the “PGA Change from Baseline: Improved by 1” value [4] was 84 (33.5) n (%). For the same compound, the “PGA Change from Baseline: Improved by 2” value [4] was 57 (22.7) n (%), the “PGA Change from Baseline: Improved by 3” value [4] was 22 (8.8) n (%) and the “PGA Change from Baseline: Improved by 4” value [4] was 1 (0.4) n (%). The “PGA Change from Baseline: No Change” value [4] was 71 (28.3) n (%), the “PGA Change from Baseline: Worsened by 1” value [4] was 13 (5.2) n (%) and the “PGA Change from Baseline: Worsened by 2” value [4] was 3 (1.2) n (%). The “PGA Change from Baseline: Worsened by 3” value [4] was 0 (0.0) n (%), the “PGA Change from Baseline: Worsened by 4” value [4] was 0 (0.0) n (%) and the “PGA 0 - Clear” value (Week 40 OC, Overall) was 68 (19.5) n (%). For the same compound, the “PGA 1 - Almost Clear” value (Week 40 OC, Overall) was 107 (30.7) n (%), the “PGA 2 - Mild” value (Week 40 OC, Overall) was 116 (33.2) n (%) and the “PGA 3 - Moderate” value (Week 40 OC, Overall) was 57 (16.3) n (%). The “PGA 4 - Severe” value (Week 40 OC, Overall) was 1 (0.3) n (%), the “PGA Change from Baseline: Improved by 1” value (Week 40 OC, Overall) was 99 (28.4) n (%) and the “PGA Change from Baseline: Improved by 2” value (Week 40 OC, Overall) was 46 (13.2) n (%). The “PGA Change from Baseline: Improved by 3” value (Week 40 OC, Overall) was 19 (5.4) n (%), the “PGA Change from Baseline: Improved by 4” value (Week 40 OC, Overall) was 1 (0.3) n (%) and the “PGA Change from Baseline: No Change” value (Week 40 OC, Overall) was 105 (30.1) n (%). The “PGA Change from Baseline: Worsened by 1” value (Week 40 OC, Overall) was 55 (15.8) n (%), the “PGA Change from Baseline: Worsened by 2” value (Week 40 OC, Overall) was 21 (6.0) n (%) and the “PGA Change from Baseline: Worsened by 3” value (Week 40 OC, Overall) was 3 (0.9) n (%). The “PGA Change from Baseline: Worsened by 4” value (Week 40 OC, Overall) was 0 (0.0) n (%), the “PGA 0 - Clear” value [5] was 41 (17.4) n (%) and the “PGA 1 - Almost Clear” value [5] was 71 (30.1) n (%). For the same compound, the “PGA 2 - Mild” value [5] was 81 (34.3) n (%), the “PGA 3 - Moderate” value [5] was 42 (17.8) n (%) and the “PGA 4 - Severe” value [5] was 1 (0.4) n (%). The “PGA Change from Baseline: Improved by 1” value [5] was 58 (24.6) n (%), the “PGA Change from Baseline: Improved by 2” value [5] was 19 (8.1) n (%) and the “PGA Change from Baseline: Improved by 3” value [5] was 2 (0.8) n (%). For the same compound, the “PGA Change from Baseline: Improved by 4” value [5] was 0 (0.0) n (%), the “PGA Change from Baseline: No Change” value [5] was 86 (36.4) n (%) and the “PGA Change from Baseline: Worsened by 1” value [5] was 48 (20.3) n (%). For the same compound, the “PGA Change from Baseline: Worsened by 2” value [5] was 20 (8.5) n (%), the “PGA Change from Baseline: Worsened by 3” value [5] was 3 (1.3) n (%) and the “PGA Change from Baseline: Worsened by 4” value [5] was 0 (0.0) n (%). For the same compound, the “PGA 0 - Clear” value (Week 40 OC, Vehicle (Pivotal)) was 27 (23.9) n (%) and the “PGA 1 - Almost Clear” value (Week 40 OC, Vehicle (Pivotal)) was 36 (31.9) n (%).

Source: US20220395472A1 (Dermavant Sciences GmbH, priority 2021, published 2022)
